How the values were obtained:
[1] = system: ABCA1 mutant-transduced Tet2 deficient BM cells; test: cell viability of treated ex vivo BM cultures; format: cell-based, mouse; conditions: same treated BM cultures; data not shown
Procedure: Briefly, femurs were flushed with ice-cold PBS and centrifugated for 5 min at 1,000 rpm to extract BM cells. After red blood cell lysis, over 90% of BM cells were CD45-positive cells of hematopoietic origin (Westerterp et al., 2012). Primary BM cells were resuspended in IMDM (Gibco) containing 10% FCS (STEMCELL Technologies) and cultured for 1 h in tissue culture flasks to remove adherent cells, including macrophages. The transduction rate of control, ABCA1-WT and ABCA 1-mutant lentiviral particles was determined after BM transplantation as described above. Suspended cells were then normalized to the same concentration and cultured for 72 h in the presence of 6 ng/mL IL-3 and 2 ng/mL GM-CSF (R&D Systems). In some experiments, the cyclodextrin (Sigma) was used at the final concentration of 5 mM, tempol (EMD Millipore) at 4 mM and anti-IL3Rbeta AF549 antibody (R&D Systems) at 50 μg/mL.

[2] = system: ABCA1 mutant-transduced Tet2 deficient BM cells; test: [3H]-thymidine proliferation assay in ex vivo BM liquid culture; format: cell-based, mouse; conditions: FIG. 5E
Source text: FIG. 5. Cholesterol accumulation couples ABCA1 invalidation and Tet2 deficiency to IL-3 receptor β signaling hypersensitivity. (A-D) Quantification of BODIPY staining by flow cytometry expressed as mean fluorescence intensity (MFI) as a surrogate of cellular cholesterol neutral lipid per cell in BM hematopoietic stem (A and C) and progenitor (B and D) cells (i.e, LSKs, MEPs, CMPs and GMPs) of recipient mice transplanted with Mx1-Cre^+, Mx1-Cre^+ Abca1^fl/fl, MX1-Cre^+Tet2^fl/fl and Mx1-Cre^+Tet2^fl/flAbca1^fl/fl BM (A and B) or control and Mx1-Cre^+Tet2^fl/fl BM expressing empty, ABCA1-WT or ABCA1 mutants (C and D). (E) Expression of mRNA was normalized to m36B4. mRNA levels were expressed as percentage over WT whole BM cells. Proliferation rates were determined after 2 h [^3H]-thymidine pulse labeling in BM cells from empty, ABCA1-WT and ABCA1 mutants-transduced animals on a Tet2 deficient background that were grown for 72 h in liquid culture in the presence or absence of 6 ng/mL IL-3 and 2 ng/mL GM-CSF and the indicated chemical compounds.
FIG. 6. […] (A) Proliferation rates were determined after 2 h [^3H]-thymidine pulse labeling in BM cells from empty, ABCA1-WT and ABCA1 mutants-transduced animals on a Tet2 deficient background that were grown for 72 h in liquid culture in the presence or absence of 50 μg/mL PEG-HDL. […]

| Compound | cell viability [1] | proliferation of ABCA1 mutant-transduced Tet2 deficient BM cells ([2]; 72 h culture in presence or absence of IL-3 and GM-CSF, cyclodextrin 5 mM, antibody 50 μg/mL, effect similar to ABCA1-WT overexpression) | basal proliferation and IL-3/GM-CSF hypersensitivity of ABCA1 mutants-transduced Tet2 deficient BM cells ([2]; tempol 4 mM, 72 h culture with or without 6 ng/mL IL-3 and 2 ng/mL GM-CSF) |
| --- | --- | --- | --- |
| cyclodextrin | without affecting cell viability | prevented the proliferation |  |
| CC1(C)CC(O)CC(C)(C)N1[O] [tempol] |  |  | prevented the basal proliferation and IL-3/GM-CSF hypersensitivity |

Reference: patent US20220411880A1, “METHODS AND COMPOSITIONS FOR DIAGNOSING AND TREATING CHRONIC MYELOMONOCYTIC LEUKEMIA (CMML)” (INSERM (INSTITUT NATIONAL DE LA SANTÉET DE LA RECHERCHE …, priority 2019, published 2022)
